The values below are quoted from earlier work in US10213443B2, “Tetracycline topical formulations, preparation and uses thereof in treating an ocular condition” (Hovione International Ltd., priority 2012, dated 2019).

The structures appear in SMILES notation.

The conditions of series [1]: compared with doxycycline.
The conditions of series [2]: in man.

With `CN(C)c1ccc(O)c2c1C[C@H]1C[C@H]3[C@H](N(C)C)C(O)=C(C(N)=O)C(=O)[C@@]3(O)C(O)=C1C2=O` [Minocycline, minocycline], the phototoxicity entry in series [1] is reported as “not phototoxic”. For the same molecule, the oral bioavailability in series [2] is listed as approximately 100%.
